Values quoted from earlier work as cited in US11020416B2, “Cancer chemotherapy employing halogenated analogs of thymidine” (priority 2015, dated 2021).
Read-outs that look alike come from different tables or passages of the source.

Columns and labels:
[1] = 14-day continuous infusion alternating with 14 days without infusion; cited from earlier work
Carcinoma, Melanoma = settings: trial c, 1962, 39 patients, dose 3.5, iv, no radiation, single cycle 1 week; cited from earlier work
PARP1 = PARP1 (Homo sapiens, UniProt P09874); settings: solution; Pivazyan, 1992; cited from earlier work
Sequence of PARP1 (P09874 whole entry, species assumed): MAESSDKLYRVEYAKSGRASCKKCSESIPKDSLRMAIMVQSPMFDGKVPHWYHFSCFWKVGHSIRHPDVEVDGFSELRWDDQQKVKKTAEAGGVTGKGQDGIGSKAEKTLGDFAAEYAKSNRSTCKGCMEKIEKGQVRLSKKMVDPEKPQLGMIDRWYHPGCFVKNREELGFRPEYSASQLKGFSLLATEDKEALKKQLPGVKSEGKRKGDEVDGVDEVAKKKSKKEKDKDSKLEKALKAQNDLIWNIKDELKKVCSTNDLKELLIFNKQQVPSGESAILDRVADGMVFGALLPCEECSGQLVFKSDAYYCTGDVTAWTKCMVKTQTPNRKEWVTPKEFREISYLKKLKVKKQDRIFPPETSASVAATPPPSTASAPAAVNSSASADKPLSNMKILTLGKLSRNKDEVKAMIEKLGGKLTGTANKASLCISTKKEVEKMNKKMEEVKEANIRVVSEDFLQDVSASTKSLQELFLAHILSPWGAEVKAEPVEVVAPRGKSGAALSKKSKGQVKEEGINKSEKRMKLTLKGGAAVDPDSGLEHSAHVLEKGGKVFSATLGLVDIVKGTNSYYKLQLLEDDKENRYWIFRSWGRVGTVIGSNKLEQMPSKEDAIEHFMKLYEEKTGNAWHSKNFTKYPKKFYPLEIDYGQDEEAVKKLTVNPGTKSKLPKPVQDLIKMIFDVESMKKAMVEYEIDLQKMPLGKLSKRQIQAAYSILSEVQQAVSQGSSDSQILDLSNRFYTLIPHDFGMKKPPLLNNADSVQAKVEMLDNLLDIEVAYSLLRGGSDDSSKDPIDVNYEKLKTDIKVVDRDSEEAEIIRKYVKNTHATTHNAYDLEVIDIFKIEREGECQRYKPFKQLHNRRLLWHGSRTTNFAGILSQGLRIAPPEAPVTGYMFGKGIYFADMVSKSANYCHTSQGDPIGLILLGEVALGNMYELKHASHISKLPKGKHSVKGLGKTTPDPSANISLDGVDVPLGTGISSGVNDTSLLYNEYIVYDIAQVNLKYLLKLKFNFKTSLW

[2] = cited from earlier work; for [IdU] plasma, average steady-state: continuous iv; for [IU] plasma (iodouracil), average steady-state: continuous iv IdU
Unresectable Sarcoma = settings: trial d, 1987, 14 patients, dose 1.3, iv, with radiation, multiple cycles up to 5 months, cited from earlier work
[3] = intraperitoneal, Morgan 1998, cited from earlier work
[4] = tested on: Oropharynx and Upper Extremity Tumors; settings: trial b, 1962, 4 patients, dose 3.9, iv/ia, no radiation, single cycle 1 week; cited from earlier work
[5] = tested on: Colorectal Liver Metastases; settings: trial f, 1989, 11 patients, dose 1.0, ia, no radiation, multiple cycles up to 5 months, cited from earlier work
[6] = tested on: Melanoma, Carcinoma, Sarcoma; settings: trial a, 1961, 16 patients, dose 3.1, iv, rad +/−, multiple cycles up to 5 months; cited from earlier work
[7] = schedule G, 1.000 Grams/M^2/day, Kinsella 1988
[8] = schedule I, 0.781 Grams/M^2/day, Schultz 2004
[9] = schedule J, 0.625 Grams/M^2/day, Schultz 2004
[10] = schedule M, 0.500 Grams/M^2/day, Schultz 2004
[11] = schedule N, 0.400 Grams/M^2/day, Schultz 2004
[12] = schedule O, 0.300 Grams/M^2/day, Schultz 2004
[13] = schedule Q, 0.200 Grams/M^2/day, Schultz 2004
[14] = schedule R, 0.100 Grams/M^2/day, Schultz 2004
[15] = schedule A, 4.538 Grams/M^2/4 hr (2 liters), 64 millimolar

For O=c1[nH]c(=O)n([C@H]2C[C@H](O)[C@@H](CO)O2)cc1I [Iododeoxyuridine, 5-iododeoxyuridine], the “time after HAT withdrawal to myelosuppression nadir and return of blood cell counts to normal” value [1] is listed as 7 to 10 days, the objective improvement (Carcinoma, Melanoma) is listed as 26% and the Ki (PARP1) is listed as 18 µM. The plasma concentration achieved ([2]; continuous circulatory infusion, historic trials d-f) was over 1000 nM, the “elimination from patient plasma” value ([2]; pharmacokinetic analysis in patients) was “rapidly eliminated” and the “[IdU] plasma, average steady-state” value ([2]; schedule C, 1.200 Grams/M^2/day, Klecker 1985) was 7.4 µM. The “[IdU] plasma, average steady-state” value ([2]; schedule D, 1.200 Grams/M^2/day, Kinsella 1988) was 3.4 µM, the “[IdU] plasma, average steady-state” value ([2]; schedule E, 1.000 Grams/M^2/day, Klecker 1985) was 5.6 µM and the “[IU] plasma (iodouracil), average steady-state” value (from here on “[IU] plasma (iodouracil)”) [2, 7] was over 20 µM. The “[IdU] plasma, average steady-state” value [2, 7] was 2.4 µM, the “[IdU] plasma, average steady-state” value ([2]; schedule H, 0.850 Grams/M^2/day, Klecker 1985) was 4.5 µM and the “[IU] plasma (iodouracil)” value [2, 8] was 21.8 µM. The “[IdU] plasma, average steady-state” value [2, 8] was 1.5 µM, the “[IU] plasma (iodouracil)” value [2, 9] was 13.9 µM and the “[IdU] plasma, average steady-state” value [2, 9] was 1.3 µM. For the same molecule, the “[IdU] plasma, average steady-state” value ([2]; schedule K, 0.500 Grams/M^2/day, Klecker 1985) was 2.9 µM, the “[IdU] plasma, average steady-state” value ([2]; schedule L, 0.500 Grams/M^2/day, Kinsella 1988) was 1.3 µM and the “[IU] plasma (iodouracil)” value [2, 10] was 6.0 µM. For the same molecule, the “[IdU] plasma, average steady-state” value [2, 10] was 0.92 µM, the “[IU] plasma (iodouracil)” value [2, 11] was 4.3 µM and the “[IdU] plasma, average steady-state” value [2, 11] was 0.90 µM. The “[IU] plasma (iodouracil)” value [2, 12] was 3.0 µM, the “[IdU] plasma, average steady-state” value [2, 12] was 0.57 µM and the “[IdU] plasma, average steady-state” value ([2]; schedule P, 0.250 Grams/M^2/day, Klecker 1985) was 1.1 µM. The “[IU] plasma (iodouracil)” value [2, 13] was 1.4 µM, the “[IdU] plasma, average steady-state” value [2, 13] was 0.79 µM and the “[IU] plasma (iodouracil)” value [2, 14] was 0.38 µM. The “[IdU] plasma, average steady-state” value [2, 14] was 0.51 µM, the objective improvement (Unresectable Sarcoma) was 80% and the subjective improvement (Unresectable Sarcoma) was “more than half of patients”. The subjective improvement (Unresectable Sarcoma; listed as IUDR) was 57%, the “Peritoneal AUC” value [3, 15] was 4099 µM·h and the “Plasma AUC” value [3, 15] was 139 µM·h. For the same molecule, the “Plasma AUC” value ([3]; schedule F, 0.625 Grams/M^2/4 hr (2 liters), 9 millimolar) was 4.38 µM·h, the objective improvement [4] was 100% and the subjective improvement [4] was 100%. The objective improvement [5] was “almost half of the patients”, the objective improvement ([5]; listed as IUDR) was 45% and the objective improvement [6] was 38%. For the same molecule, the subjective improvement [6] was 38%.
